Test results as given in paper PMC12040169 (PLOS Biology, 2025).

Assay: in vitro
Settings: human, hela cells, % viability

Row | Compound | viability at 28.5 h, 10 µM | viability at 28.5 h, 10 µM (bulk resorufin, single well)
1 | COc1cc(OC)nc(C(NC(=O)C2CCN(Cc3cn(C)c4ccccc34)CC2)c2ccc(F)cc2)n1 (stereo not drawn) [CBK148185] | 90.7% | –
2 | COCC(=O)N1CCC(c2nc(C)n3c(C)csc23)CC1 [CBK285198] | 96.7% | –
3 | Cc1sc2nc(SCCCN3C(=O)c4cccc5cccc(c45)C3=O)nc(N)c2c1C [CBK264424] | 76.6% | –
4 | Cn1nccc1CN1CCCC(COc2ccc(F)cc2)C1 (stereo not drawn) [CBK281899] | 95.2% | –
5 | CN1CC=C(/C=C/c2ccc(Sc3ncccn3)o2)CC1 [CBK283797] | 82.3% | –
6 | CC1CCN(Cc2nc3c(c(=O)n(C)c(=O)n3C)n2CCN2CCOCC2)CC1 [CBK269291] | 108% | –
7 | CCN1CC2(CCN(Cc3ncc[nH]3)CC2)c2ccccc21 [CBK131486] | 89.1% | –
8 | Cc1cnn(-c2cc(Oc3ccccc3)ncn2)c1 [CBK287276] | 114% | –
9 | Cc1ccc2c(c1)CCCN2C(=O)c1cnc2c(c1)c(C)nn2C [CBK305670] | 96% | –
10 | CC1(C)CC(=O)C2=C(C1)OC(=O)CC2c1ccc(Cl)cc1Cl (stereo not drawn) [CBK007777] | 93.8% | –
11 | COc1ccc(-c2ccc(CCC(=O)O)n2NC(N)=S)cc1 [CBK266018] | 102% | –
12 | Cc1cc(Br)cc(C)c1OCCNCCN(C)C [CBK267808G] | 106% | –
13 | Cc1noc(C)c1C(=O)N1CCCCCC1c1nn(C)cc1Cl (stereo not drawn) [CBK285106] | 101% | –
14 | O=C(NCCN1CCCCC1)C1CC(=O)N(Cc2ccco2)C1 (stereo not drawn) [CBK304877] | 89.8% | –
15 | O=C(NCCCN1CCOCC1)Nc1cccc(Cl)c1Cl [CBK016286] | 85.5% | –
16 | Cc1nc(NS(=O)(=O)c2c(C)noc2C)sc1C(=O)O [CBK045562] | 85.7% | –
17 | Cc1csc(CNCc2c(C(C)C)nn(C)c2N(C)C)n1 [CBK305089] | 83.7% | –
18 | CCc1nc2ccc(C(=O)N(C)CCN(C)C)cn2c1N(C)C(=O)Cc1ccccc1 [CBK146858] | 90.8% | –
19 | Cc1ccc(NC(=O)CCSc2nnc3ccccn23)cc1 [CBK265563] | 93.7% | –
20 | O=S(=O)(N1CCCCCC1)N1CCN(S(=O)(=O)N2CCCCC2)CC1 [CBK269001] | 114% | –
21 | CCOC(=O)c1c(N)sc(C(=O)Nc2cccc([N+](=O)[O-])c2)c1C [CBK066829] | 91.2% | –
22 | COC(=O)c1ccc(F)c(NC(=O)C2CCCC2)c1 [CBK296640] | 85.5% | –
23 | Cc1csc2c(C3CCN(C(=O)c4ccccn4)CC3)nc(C)n12 [CBK285244] | 77.4% | –

Row | Compound | viability at 28.5 h, 10 µM | viability at 28.5 h, 10 µM (bulk resorufin, single well)
24 | O=C(NCCO)C1CCCN(S(=O)(=O)c2ccc3ccccc3c2)C1 (stereo not drawn) [CBK270090] | 83.7% | –
25 | CC(=O)N1CCc2cc(-c3cc4c(C)cccn4c3)ccc21 [CBK285225] | 96% | –
26 | COc1ccc(NC(=O)c2cc([N+](=O)[O-])ccc2N2CCN(C)CC2)cc1 [CBK263017] | 102% | –
27 | CC1CCCCC1NC(=O)Cn1c(=O)n(C(C)C)c2ncccc21 (stereo not drawn) [CBK283697] | 88.8% | –
28 | CS(=O)(=O)N1CC2(CCN(CCO)CC2)c2ccccc21 [CBK126677] | 94.5% | –
29 | O=C(NCc1cccs1)c1ccc(N2CCN(C(=O)c3ccccc3C(F)(F)F)CC2)nn1 [CBK153218] | 87.6% | –
30 | O=C(Cc1ccsc1)NCCn1nc(-c2cccs2)ccc1=O [CBK283842] | 96.5% | –
31 | COc1ccc(-c2nc(NC(=O)C3CC3)cnc2-c2cccc(C(F)(F)F)c2)cc1 [CBK036852] | 98% | –
32 | Cc1c(S(=O)(=O)N2CCC(N)C2)sc2ccc(Cl)cc12 (stereo not drawn) [CBK164970] | 89.3% | –
33 | COCCNc1nc(-c2ccc(N3CCOCC3)cc2)ccc1C(=O)N1CCN(C)CC1 [CBK105943] | 111% | –
34 | CN(C)CC1CCCN(C(=O)C2C3CCCCC32)C1 (stereo not drawn) [CBK282002] | 82.3% | –
35 | COC(=O)c1cc(CN2CCCN(S(=O)(=O)c3ccc(-n4cnc(Cl)c4Cl)cc3)CC2)cn1C [CBK063080] | 85.2% | –
36 | Cc1cc(C2CCCCCN2C(=O)c2c(C)noc2C)on1 (stereo not drawn) [CBK284844] | 90% | –
37 | Cc1c(C(C)NCC(O)c2ccncc2)cnn1-c1ccc(C#N)cc1 (stereo not drawn) [CBK305403] | 85% | –
38 | O=c1[nH]c(-c2cc(Cc3ccccc3Cl)ccc2O)nc2ccccc12 [CBK291220] | 98.3% | –
39 | CS(=O)(=O)NC1CCCN(c2nc(-c3ccsc3)nc3ccccc23)C1 (stereo not drawn) [CBK305623] | 99.1% | –
40 | O/N=C1/c2ccccc2/C(=N/O)C1c1ccccc1 [CBK261122] | 75.2% | –
41 | Cc1nc(CC(=O)N2CCCC(c3cccc(Cc4ccc(Cl)cc4)n3)C2)cs1 (stereo not drawn) [CBK286505] | 94.3% | –
42 | CCNC(=O)c1ccc(-c2ccc(S(C)(=O)=O)cc2)nc1 [CBK158882] | 91.9% | –
43 | O=P(O)(CCc1ccncc1)CN1CCCCC1 [CBK262323] | 104% | –
44 | N#CCCN(C1CCCCC1)S(=O)(=O)c1cccc2nsnc12 [CBK009093] | 94% | –
45 | CCC(C)C(=O)N1CCC(c2nnc3n2CCCCC3)CC1 (stereo not drawn) [CBK282260] | 85.4% | –
46 | CC(C)Oc1ncccc1OCCO [CBK001465] | 112% | –

Row | Compound | viability at 28.5 h, 10 µM | viability at 28.5 h, 10 µM (bulk resorufin, single well)
47 | Nc1ncc(-c2cccc(CO)c2)nc1N1CCOCC1 [CBK063406] | 97.6% | –
48 | CCOC(=O)c1ccc2ncc3c(=O)nc(N)sc3c2c1 [CBK291218] | 83.7% | –
49 | COc1cc(NS(=O)(=O)c2cc(C(=O)O)c(Cl)cc2Cl)cc(OC)c1 [CBK113162] | 98.9% | –
50 | Cc1nnc(N/N=C\c2c(Cl)cccc2Cl)[nH]c1=O [CBK027921] | 110% | –
51 | O=S(=O)(c1ccc(N2CCNCC2)cc1)n1ccc2ccc(Br)cc21 [CBK034034C] | 70.6% | –
52 | Cc1cc(NC(=O)CN2CCN(c3ccc(F)cc3)CC2)nc2c1c(=O)oc1ccccc12 [CBK291232] | 88.8% | –
53 | Cc1[nH]c2ccc(F)cc2c1CC(=O)N(C)CCN1CCCCC1 [CBK282748] | 84.3% | –
54 | CC(C)C(NC(=O)C1CCC(C(C)(C)C)CC1)C(=O)O (stereo not drawn) [CBK286610] | 95.5% | –
55 | Cc1ccccc1C(=O)Nc1cccc(-c2nnc(SCC(=O)c3ccc(Cl)cc3)n2C)c1 [CBK264053] | 89.3% | –
56 | O=C(O)CSc1nc2cc(Cl)c(Cl)cc2nc1N1CCCC1 [CBK107863] | 92.9% | –
57 | CCOc1ccccc1NC(=O)NCc1cccnc1 [CBK267026] | 107% | –
58 | COc1ccccc1NC(=O)Cn1cnc2sc(C(=O)NC(C)C)c(C)c2c1=O [CBK071847] | 93% | –
59 | CSCCN1CCCN(c2nccc(OCc3ccc(Cl)c(Cl)c3)n2)CC1 [CBK083960] | 70.5% | –
60 | CCOc1cccc(-c2cncc(N3CCCC3CO)n2)c1 (stereo not drawn) [CBK066004] | 89.7% | –
61 | COc1cc(C(N)C(=O)O)ccc1OCc1ccccc1 (stereo not drawn) [CBK286909] | 82.6% | –
62 | O=C(CCSc1ccc([N+](=O)[O-])cc1Cl)Nc1ccc(Br)c2cccnc12 [CBK266407] | 86.7% | –
63 | O=C1COc2ccccc2C/C=C/C[C@H]2CN(C(=O)CN3CCCCCC3=O)CC[C@H]2N1 [CBK292116] | 89.7% | –
64 | Cc1nn2c(CN(C(=O)COc3ccccc3)c3ccccc3)nnc2c2ccccc12 [CBK268036] | 83.4% | –
65 | Nc1nc(=O)n([C@H]2C[C@@H](O)[C@@H](CO)O2)cc1O [CBK201221] | 98.2% | –
66 | N#Cc1cnc(NCc2ccccc2)nc1N [CBK015764] | 90% | –
67 | COCc1cn(C2CC(O)C(CO)O2)c(=O)[nH]c1=O (stereo not drawn) [CBK201230] | 99.8% | –
68 | Cc1ccc(-c2csc3c(=O)[nH]c(N4CCCC(C(=O)NCc5cccnc5)C4)nc23)cc1 (stereo not drawn) [CBK215546] | 91.7% | –
69 | O=C1CN(C(=O)NCC2COc3ccccc3O2)CCN1 (stereo not drawn) [CBK155847] | 88.3% | –

Row | Compound | viability at 28.5 h, 10 µM | viability at 28.5 h, 10 µM (bulk resorufin, single well)
70 | Cc1cc(C)n(-c2cccc(CN3CCC(CO)C3)c2)n1 (stereo not drawn) [CBK282928] | 94.8% | –
71 | COC(=O)N1CCCCC1C(=O)NCCc1nc(C)cc(C(F)(F)F)n1 (stereo not drawn) [CBK306752] | 94.2% | –
72 | FC(F)(F)c1nc2ccccc2nc1SCc1ccco1 [CBK107201] | 85.9% | –
73 | Cc1cc(C)n2nc(C(=O)N3CCCC34CC=CC4)cc2n1 [CBK282815] | 88.7% | –
74 | O=C(O)C1(Oc2ccc3ncccc3c2)CCN(CC2CCOC2)CC1 (stereo not drawn) [CBK307336] | 93.2% | –
75 | O=C(c1cccnc1)C1CCN(C(=O)C2CCCCC2)CC1 [CBK283817] | 90% | –
76 | Cc1cc(C)nc(N/N=C/c2cn(-c3ccccc3)nc2-c2ccc([N+](=O)[O-])cc2)n1 [CBK262864] | 90.5% | –
77 | Fc1ccc(CN2CC3CCCC(C2)C3N2CCOCC2)cc1F (stereo not drawn) [CBK282270] | 95.8% | –
78 | Cc1ccccc1C(=O)NCC(=O)Nc1cc2ccccc2c(Br)n1 [CBK063298] | 89.4% | –
79 | COc1ccc(CCNc2ncnc3[nH]cnc23)cc1OC [CBK134342] | 110% | –
80 | O=C(N[C@@H](Cn1cc(Cl)c(=O)[nH]c1=O)C(=O)O)c1cccc(F)c1 [CBK289650] | 118% | –
81 | O=C(c1nccc2ccccc12)N1CCc2ccccc21 [CBK200405] | 93.5% | –
82 | CS(=O)(=O)c1ccc(-c2ccc(COC3CCN(C(=O)CCCc4ccc(F)cc4)CC3)cn2)cc1 [CBK162229T] | 91.6% | –
83 | Cc1c(-c2ccc(OCC(N)=O)cc2)nc2ccc(Br)cc2c1C(=O)O [CBK287050] | 93.1% | –
84 | COc1ccc([C@@]23CC[C@@H](NC(=O)Nc4cccc(S(=O)(=O)C(F)(F)F)c4)C[C@@H]2N(C)CC3)cc1OC [CBK051275T] | 99% | –
85 | CC(=O)N1CCC2(CC1)OCc1cc(-c3c(C)noc3C)ccc1O2 [CBK060896] | – | 94.4%
86 | C=CCOc1c(CNc2cccc(C(=O)O)c2)cccc1OC [CBK074432] | 95.6% | –
87 | O=C(Cn1ccc2ccnc(-c3cccs3)c21)N1CCC(O)CC1 [CBK284736] | 93.1% | –
88 | O=C(CN1CCC(NC(=O)c2cccs2)CC1)NCc1ccccc1F [CBK304901] | 97.2% | –
89 | Cc1ccc(-c2nnc(CNC(=O)c3ccc(F)c(F)c3)o2)s1 [CBK284647] | 90.5% | –
90 | O=C(NNC1=C(C(=O)C(F)(F)F)CCC1)c1cccnc1 [CBK262459] | 89.1% | –
